Patent US11725011B2, “Bicyclic urea kinase inhibitors and uses thereof” (The Broad Institute, Inc., priority 2016, dated 2023)

What was measured:
Assay in all cases: KINOMEscan
Format in all cases: binding
Conditions in all cases: 1 uM
HIPK3 = HIPK3 (Homo sapiens (Human), UniProt Q9H422)
ASK1 = ASK1 (Homo sapiens (Human), UniProt Q99683)
FER = FER (Homo sapiens (Human), UniProt P16591)
RIPK4 = RIPK4 (Homo sapiens (Human), UniProt P57078)
EGFR (T790M) = EGFR (T790M) (Homo sapiens (Human), UniProt P00533, T790M)
[1] = biological target: RPS6KA4 (Kin.Dom.1-N-terminal) (Homo sapiens (Human), UniProt O75676)
CAMK2G = CAMK2G (Homo sapiens (Human), UniProt Q13555)
YANK3 = YANK3 (Homo sapiens (Human), UniProt Q86UX6)
MUSK = MUSK (Homo sapiens (Human), UniProt O15146)
RET (V804M) = RET (V804M) (Homo sapiens (Human), UniProt P07949, V804M)
RET (V804L) = RET (V804L) (Homo sapiens (Human), UniProt P07949, V804L)
GRK7 = GRK7 (Homo sapiens (Human), UniProt Q8WTQ7)
BRAF (V600E) = BRAF (V600E) (Homo sapiens (Human), UniProt P15056, V600E)
ROS1 = ROS1 (Homo sapiens (Human), UniProt P08922)
EPHB1 = EPHB1 (Homo sapiens (Human), UniProt P54762)
MAP3K4 = MAP3K4 (Homo sapiens (Human), UniProt Q9Y6R4)
PIK3CA (M1043I) = PIK3CA (M1043I) (Homo sapiens (Human), UniProt P42336, M1043I)
PCTK2 = PCTK2 (Homo sapiens (Human), UniProt Q00537)
PRKCH = PRKCH (Homo sapiens (Human), UniProt P24723)
LKB1 = LKB1 (Homo sapiens (Human), UniProt Q15831)
[2] = biological target: RSK2 (Kin.Dom.2-C-terminal) (Homo sapiens (Human), UniProt P51812)
EPHA7 = EPHA7 (Homo sapiens (Human), UniProt Q15375)
EPHB4 = EPHB4 (Homo sapiens (Human), UniProt P54760)
EPHA8 = EPHA8 (Homo sapiens (Human), UniProt P29322)
IGF1R = IGF1R (Homo sapiens (Human), UniProt P08069)
GCN2 (Kin.Dom.2, S808G) = GCN2 (Kin.Dom.2, S808G) (Homo sapiens (Human), UniProt Q9P2K8, S808G)
MYLK2 = MYLK2 (Homo sapiens (Human), UniProt Q9H1R3)
ULK3 = ULK3 (Homo sapiens (Human), UniProt Q6PHR2)
PRKG2 = PRKG2 (Homo sapiens (Human), UniProt Q13237)
CDC2L2 = CDC2L2 (Homo sapiens (Human), UniProt Q9UQ88)
LRRK2 = LRRK2 (Homo sapiens (Human), UniProt Q5S007)
PLK1 = PLK1 (Homo sapiens (Human), UniProt P53350)
FYN = FYN (Homo sapiens (Human), UniProt P06241)
[3] = biological target: TYK2 (JH2domain-pseudokinase) (Homo sapiens (Human), UniProt P29597)
HIPK2 = HIPK2 (Homo sapiens (Human), UniProt Q9H2X6)
NEK7 = NEK7 (Homo sapiens (Human), UniProt Q8TDX7)
ROCK2 = ROCK2 (Homo sapiens (Human), UniProt O75116)
STK39 = STK39 (Homo sapiens (Human), UniProt Q9UEW8)
[4] = biological target: ABL1 (F317I)-phosphorylated (Homo sapiens (Human), UniProt P00519, F317I)
TGFBR2 = TGFBR2 (Homo sapiens (Human), UniProt P37173)

PCTK2, sequence (Q00537 whole entry): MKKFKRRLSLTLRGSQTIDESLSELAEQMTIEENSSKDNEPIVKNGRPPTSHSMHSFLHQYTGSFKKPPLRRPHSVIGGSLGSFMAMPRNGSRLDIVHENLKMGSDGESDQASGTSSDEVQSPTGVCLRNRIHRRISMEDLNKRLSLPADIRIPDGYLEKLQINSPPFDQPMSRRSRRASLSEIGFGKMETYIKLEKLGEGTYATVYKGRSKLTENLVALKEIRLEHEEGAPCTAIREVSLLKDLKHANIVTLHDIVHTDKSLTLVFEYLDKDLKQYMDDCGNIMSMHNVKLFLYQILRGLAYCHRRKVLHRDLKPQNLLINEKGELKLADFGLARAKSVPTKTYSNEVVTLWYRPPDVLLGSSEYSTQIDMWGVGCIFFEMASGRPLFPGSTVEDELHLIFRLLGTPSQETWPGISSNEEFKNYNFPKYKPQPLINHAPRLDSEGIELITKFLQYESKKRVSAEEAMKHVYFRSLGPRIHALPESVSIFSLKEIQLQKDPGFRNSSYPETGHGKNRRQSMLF
RPS6KA4 (Kin.Dom.1-N-terminal), sequence (O75676 33-301): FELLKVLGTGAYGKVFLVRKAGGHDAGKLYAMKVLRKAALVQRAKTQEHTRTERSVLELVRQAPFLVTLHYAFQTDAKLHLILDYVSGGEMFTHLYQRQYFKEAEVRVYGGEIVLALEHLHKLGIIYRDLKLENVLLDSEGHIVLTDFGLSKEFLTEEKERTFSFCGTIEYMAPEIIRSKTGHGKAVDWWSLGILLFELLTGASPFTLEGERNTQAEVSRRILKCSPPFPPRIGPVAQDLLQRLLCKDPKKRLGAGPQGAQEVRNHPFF
PRKG2, sequence (Q13237 whole entry): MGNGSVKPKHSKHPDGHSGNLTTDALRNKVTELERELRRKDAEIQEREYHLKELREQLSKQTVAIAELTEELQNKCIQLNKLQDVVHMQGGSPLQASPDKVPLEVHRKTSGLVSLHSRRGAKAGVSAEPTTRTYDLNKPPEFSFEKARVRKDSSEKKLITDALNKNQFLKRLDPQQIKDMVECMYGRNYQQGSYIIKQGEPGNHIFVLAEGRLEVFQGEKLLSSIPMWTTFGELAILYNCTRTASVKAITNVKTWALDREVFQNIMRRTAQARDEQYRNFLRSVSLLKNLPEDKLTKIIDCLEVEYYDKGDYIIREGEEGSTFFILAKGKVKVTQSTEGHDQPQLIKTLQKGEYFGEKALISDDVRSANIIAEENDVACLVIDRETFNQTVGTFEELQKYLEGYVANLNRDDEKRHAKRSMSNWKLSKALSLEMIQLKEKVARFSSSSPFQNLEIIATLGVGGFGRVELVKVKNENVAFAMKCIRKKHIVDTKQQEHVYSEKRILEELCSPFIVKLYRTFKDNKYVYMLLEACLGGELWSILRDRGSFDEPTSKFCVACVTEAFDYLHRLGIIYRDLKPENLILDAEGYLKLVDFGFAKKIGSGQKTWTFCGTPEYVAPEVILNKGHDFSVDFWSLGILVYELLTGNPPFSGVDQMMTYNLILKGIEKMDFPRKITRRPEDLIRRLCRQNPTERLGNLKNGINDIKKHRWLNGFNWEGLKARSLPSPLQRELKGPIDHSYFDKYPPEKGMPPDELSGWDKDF
ROS1, sequence (P08922 28-2347): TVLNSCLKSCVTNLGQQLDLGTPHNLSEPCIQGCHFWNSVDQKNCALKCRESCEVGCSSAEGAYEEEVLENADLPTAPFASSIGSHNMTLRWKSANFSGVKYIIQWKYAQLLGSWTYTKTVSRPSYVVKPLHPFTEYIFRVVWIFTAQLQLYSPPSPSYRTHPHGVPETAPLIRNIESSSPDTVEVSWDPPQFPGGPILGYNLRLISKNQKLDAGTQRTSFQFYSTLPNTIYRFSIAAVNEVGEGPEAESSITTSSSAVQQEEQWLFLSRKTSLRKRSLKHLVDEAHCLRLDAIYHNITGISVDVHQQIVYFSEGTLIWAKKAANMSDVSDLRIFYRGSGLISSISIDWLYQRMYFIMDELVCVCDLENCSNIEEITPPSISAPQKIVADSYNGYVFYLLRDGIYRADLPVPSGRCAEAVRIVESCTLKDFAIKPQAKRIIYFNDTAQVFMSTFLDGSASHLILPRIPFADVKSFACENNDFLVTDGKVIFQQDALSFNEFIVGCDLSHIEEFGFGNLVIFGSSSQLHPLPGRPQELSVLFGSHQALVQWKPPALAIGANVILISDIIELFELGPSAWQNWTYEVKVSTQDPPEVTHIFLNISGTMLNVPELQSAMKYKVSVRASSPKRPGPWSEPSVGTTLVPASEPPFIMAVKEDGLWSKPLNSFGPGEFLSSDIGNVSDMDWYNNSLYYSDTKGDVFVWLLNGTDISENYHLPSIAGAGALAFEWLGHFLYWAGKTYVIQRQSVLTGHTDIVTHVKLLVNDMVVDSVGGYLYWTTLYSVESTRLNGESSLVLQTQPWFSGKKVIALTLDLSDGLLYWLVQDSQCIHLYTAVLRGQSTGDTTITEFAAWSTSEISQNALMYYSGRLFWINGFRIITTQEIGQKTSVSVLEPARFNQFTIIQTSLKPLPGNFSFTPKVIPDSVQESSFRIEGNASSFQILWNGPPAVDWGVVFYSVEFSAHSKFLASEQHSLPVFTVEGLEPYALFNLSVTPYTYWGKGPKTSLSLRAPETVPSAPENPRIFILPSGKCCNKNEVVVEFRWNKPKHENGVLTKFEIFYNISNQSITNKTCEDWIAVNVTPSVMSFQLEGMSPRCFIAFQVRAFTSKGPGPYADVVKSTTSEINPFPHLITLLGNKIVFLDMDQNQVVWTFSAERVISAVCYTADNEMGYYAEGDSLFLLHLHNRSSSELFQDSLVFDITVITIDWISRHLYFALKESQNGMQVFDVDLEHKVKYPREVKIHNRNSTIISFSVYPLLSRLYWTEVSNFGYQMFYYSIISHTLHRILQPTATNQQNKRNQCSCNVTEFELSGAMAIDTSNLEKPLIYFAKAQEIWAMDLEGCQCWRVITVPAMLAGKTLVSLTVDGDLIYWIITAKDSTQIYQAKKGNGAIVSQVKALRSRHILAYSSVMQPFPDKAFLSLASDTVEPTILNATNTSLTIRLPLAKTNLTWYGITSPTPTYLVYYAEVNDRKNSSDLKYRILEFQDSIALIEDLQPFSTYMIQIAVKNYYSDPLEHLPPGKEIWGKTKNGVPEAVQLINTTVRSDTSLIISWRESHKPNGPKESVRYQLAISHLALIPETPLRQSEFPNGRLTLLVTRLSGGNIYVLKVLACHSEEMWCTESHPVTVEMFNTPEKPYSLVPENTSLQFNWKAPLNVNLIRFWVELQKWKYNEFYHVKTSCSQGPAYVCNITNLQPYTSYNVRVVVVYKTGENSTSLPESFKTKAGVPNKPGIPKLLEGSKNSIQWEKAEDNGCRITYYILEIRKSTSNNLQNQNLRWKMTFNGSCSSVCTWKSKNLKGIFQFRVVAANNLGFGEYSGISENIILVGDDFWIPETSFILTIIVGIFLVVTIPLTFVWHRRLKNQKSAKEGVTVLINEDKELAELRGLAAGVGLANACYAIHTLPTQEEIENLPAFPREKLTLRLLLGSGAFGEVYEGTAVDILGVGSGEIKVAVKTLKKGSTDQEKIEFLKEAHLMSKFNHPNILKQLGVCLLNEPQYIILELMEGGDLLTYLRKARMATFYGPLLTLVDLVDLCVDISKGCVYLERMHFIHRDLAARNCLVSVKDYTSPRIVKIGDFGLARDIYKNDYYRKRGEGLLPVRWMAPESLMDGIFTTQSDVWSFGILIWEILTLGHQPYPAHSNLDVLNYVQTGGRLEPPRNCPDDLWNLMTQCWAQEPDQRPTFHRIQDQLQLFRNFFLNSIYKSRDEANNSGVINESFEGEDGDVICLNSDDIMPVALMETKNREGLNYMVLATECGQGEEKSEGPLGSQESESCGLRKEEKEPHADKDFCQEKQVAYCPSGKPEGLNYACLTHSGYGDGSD
GCN2 (Kin.Dom.2, S808G), sequence (Q9P2K8 590-1001 S808G): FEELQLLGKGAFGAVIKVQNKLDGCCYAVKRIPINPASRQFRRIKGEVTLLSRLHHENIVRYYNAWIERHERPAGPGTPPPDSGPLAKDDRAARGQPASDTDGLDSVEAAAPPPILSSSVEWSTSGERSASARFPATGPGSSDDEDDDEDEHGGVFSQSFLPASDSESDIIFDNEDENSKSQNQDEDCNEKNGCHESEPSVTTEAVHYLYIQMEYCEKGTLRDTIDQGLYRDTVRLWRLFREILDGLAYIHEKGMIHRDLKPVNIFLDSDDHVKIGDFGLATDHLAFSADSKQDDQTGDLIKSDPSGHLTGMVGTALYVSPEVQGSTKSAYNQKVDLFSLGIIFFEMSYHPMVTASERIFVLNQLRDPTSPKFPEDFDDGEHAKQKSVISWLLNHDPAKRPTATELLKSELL
TYK2 (JH2domain-pseudokinase), sequence (P29597 589-875): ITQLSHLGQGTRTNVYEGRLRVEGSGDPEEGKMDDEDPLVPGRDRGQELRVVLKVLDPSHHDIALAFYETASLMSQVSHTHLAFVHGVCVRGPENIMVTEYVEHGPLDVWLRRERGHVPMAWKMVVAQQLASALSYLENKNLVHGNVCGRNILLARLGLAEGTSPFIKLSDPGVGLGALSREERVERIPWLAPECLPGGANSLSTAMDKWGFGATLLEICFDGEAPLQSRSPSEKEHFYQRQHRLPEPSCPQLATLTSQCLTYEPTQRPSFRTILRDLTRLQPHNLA
YANK3, sequence (Q86UX6 whole entry): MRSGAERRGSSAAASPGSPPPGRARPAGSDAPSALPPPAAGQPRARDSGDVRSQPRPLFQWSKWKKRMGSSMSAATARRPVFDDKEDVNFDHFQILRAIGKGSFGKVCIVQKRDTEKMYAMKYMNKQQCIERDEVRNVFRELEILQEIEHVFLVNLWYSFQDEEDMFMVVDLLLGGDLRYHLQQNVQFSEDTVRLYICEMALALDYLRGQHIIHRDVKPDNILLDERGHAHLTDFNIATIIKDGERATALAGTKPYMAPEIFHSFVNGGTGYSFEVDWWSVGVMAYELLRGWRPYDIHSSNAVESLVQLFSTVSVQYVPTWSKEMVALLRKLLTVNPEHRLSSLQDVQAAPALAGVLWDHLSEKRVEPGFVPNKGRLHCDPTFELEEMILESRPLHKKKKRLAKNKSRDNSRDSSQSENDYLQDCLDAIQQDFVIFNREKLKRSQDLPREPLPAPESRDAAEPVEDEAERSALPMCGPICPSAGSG

In the case of `COc1ccc(N2C(=O)N(c3c(C)cccc3C)Cc3cnc(Nc4ccc(N5CCN(C)CC5)cc4)nc32)c(OC)c1` [HG-11-136-01], the “KINOMEscan HIPK3” value (HIPK3) is reported as 2.6, the “KINOMEscan ASK1” value (ASK1) is reported as 100 and the “KINOMEscan FER” value (FER) is reported as 0.1. For the same compound, the “KINOMEscan RIPK4” value (RIPK4) was 55, the “KINOMEscan EGFR (T790M)” value (EGFR (T790M)) was 0.7 and the “KINOMEscan RPS6KA4 (Kin.Dom.1-N-terminal)” value [1] was 79. For the same compound, the “KINOMEscan CAMK2G” value (CAMK2G) was 100, the “KINOMEscan YANK3” value (YANK3) was 32 and the “KINOMEscan MUSK” value (MUSK) was 86. For the same compound, the “KINOMEscan RET (V804M)” value (RET (V804M)) was 7.6, the “KINOMEscan RET (V804L)” value (RET (V804L)) was 24 and the “KINOMEscan GRK7” value (GRK7) was 96. The “KINOMEscan BRAF (V600E)” value (BRAF (V600E)) was 13, the “KINOMEscan ROS1” value (ROS1) was 63 and the “KINOMEscan EPHB1” value (EPHB1) was 0.3. The “KINOMEscan MAP3K4” value (MAP3K4) was 16, the “KINOMEscan PIK3CA (M1043I)” value (PIK3CA (M1043I)) was 64 and the “KINOMEscan PCTK2” value (PCTK2) was 91. For the same compound, the “KINOMEscan PRKCH” value (PRKCH) was 100, the “KINOMEscan LKB1” value (LKB1) was 69 and the “KINOMEscan RSK2 (Kin.Dom.2-C-terminal)” value [2] was 51. The “KINOMEscan EPHA7” value (EPHA7) was 72, the “KINOMEscan EPHB4” value (EPHB4) was 0 and the “KINOMEscan EPHA8” value (EPHA8) was 0.9. For the same compound, the “KINOMEscan IGF1R” value (IGF1R) was 100, the “KINOMEscan GCN2 (Kin.Dom.2, S808G)” value (GCN2 (Kin.Dom.2, S808G)) was 0.75 and the “KINOMEscan MYLK2” value (MYLK2) was 81. For the same compound, the “KINOMEscan ULK3” value (ULK3) was 2, the “KINOMEscan PRKG2” value (PRKG2) was 92 and the “KINOMEscan CDC2L2” value (CDC2L2) was 83. For the same compound, the “KINOMEscan LRRK2” value (LRRK2) was 21, the “KINOMEscan PLK1” value (PLK1) was 60 and the “KINOMEscan FYN” value (FYN) was 0.35. For the same compound, the “KINOMEscan TYK2 (JH2domain-pseudokinase)” value [3] was 1.2, the “KINOMEscan HIPK2” value (HIPK2) was 0.95 and the “KINOMEscan NEK7” value (NEK7) was 100. For the same compound, the “KINOMEscan ROCK2” value (ROCK2) was 89, the “KINOMEscan STK39” value (STK39) was 28 and the “KINOMEscan ABL1 (F317I)-phosphorylated” value [4] was 1.3. For the same compound, the “KINOMEscan TGFBR2” value (TGFBR2) was 38.
